Holding throughout (test): DTP human tumour cell line panel, 48 h
Assay [1] deals with SNB-19 CNS.
The subject of assay [2] is ACHN renal.
The test system of assay [3] is MCF7 breast.
For assay [4], the system named is NCI-H226 lung.
Assay [5] relates to UO-31 renal.
Assay [6] relates to OVCAR-3 ovarian.
The subject of assay [7] is SF-268 CNS.
The test system of assay [8] is NCI/ADR-RES ovarian.

For nine molecules, GI50 and TGI results are on record in PubChem BioAssay (NCI).

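Cells were grown in 96-well plates and exposed to each compound for 48 hours at five concentrations; endpoints were interpolated linearly between bracketing concentrations, or set to the highest concentration if not reached. GI50 marks 50% less growth. TGI denotes the concentration required for complete inhibition of growth.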

For the molecule `CNCCn1c(=O)c2cc(OC)c(OC)cc2c2ccc3cc4c(cc3c21)OCO4`, the GI50 was 0.116 µM in assay [1]; 0.0822 µM in assay [2]; 0.0296 µM in assay [3]; 0.192 µM in assay [4]; 0.123 µM in assay [5]; 0.162 µM in assay [6]. Besides, the GI50 in assay [7] is 0.0888 µM; in assay [8], 0.217 µM. In addition, the TGI in assay [1] came to 5.61 µM; in assay [2], 0.368 µM; in assay [3], 4.43 µM; in assay [4] it was 1.03 µM; in assay [5], 0.543 µM; in assay [6], 1.25 µM. The TGI is 5.52 µM in assay [7] and 3.19 µM in assay [8].

Regarding `CCOC(=O)/C=C/C1=C(c2cccs2)c2ccccc2CC1`, the GI50 in assay [1] is 30.9 µM; in assay [2], 17.1 µM; in assay [3], 36.1 µM; in assay [4], 25.4 µM; in assay [5], 33.5 µM; in assay [6], 29.5 µM. Besides, the GI50 is 30.2 µM in assay [7] and 21.1 µM in assay [8]. Also, the TGI in assay [1] was greater than 100 µM; in assay [2], 34.5 µM; in assay [3], greater than 100 µM; in assay [4], 70.2 µM; in assay [5], greater than 100 µM; in assay [6], greater than 100 µM. Also, the TGI in assay [7] is greater than 100 µM; in assay [8] it was 55.9 µM.

On to `Cc1ccc2nc(-c3ccc(N(C)C)c(Br)c3)cn2c1`, for which the GI50 in assay [1] is 64.4 µM; in assay [2], greater than 100 µM; in assay [3], 27.8 µM; in assay [4], greater than 100 µM; in assay [5] it was greater than 100 µM; in assay [6], greater than 100 µM. Further, the GI50 is 8.09 µM in assay [7] and greater than 100 µM in assay [8]. The TGI in assay [1], in assay [2], in assay [3], in assay [4], in assay [5] and in assay [6] was greater than 100 µM in each case. The TGI in assay [7] and in assay [8] was greater than 100 µM throughout.

As for `COc1ccc2c(c1)/C(=C\c1c(Cl)[nH]c3ccc(OC)cc13)C(=O)N2`, the GI50 was 20.6 µM in assay [1]; 43.3 µM in assay [2]; 44.9 µM in assay [3]; 41.9 µM in assay [4]; 87.1 µM in assay [5]; 29.4 µM in assay [6]. The GI50 was 61.2 µM in assay [7] and greater than 100 µM in assay [8]. For the same molecule, the TGI in assay [1] was 64.1 µM; in assay [2], greater than 100 µM; in assay [3], greater than 100 µM; in assay [4] it was greater than 100 µM; in assay [5], greater than 100 µM; in assay [6], greater than 100 µM. The TGI in assay [7] and in assay [8] was greater than 100 µM in each case.

Consider `Nc1ccccc1C#C/C=C\C#Cc1ccccc1[N+](=O)[O-]`, for which the GI50 in assay [1] is 19.8 µM; in assay [2] it was 5.3 µM; in assay [3], 3.32 µM; in assay [5], 10.5 µM; in assay [6], 4.03 µM; in assay [7], 6.38 µM. In addition, in assay [8], the GI50 was 1.23 µM. Besides, the TGI in assay [1] was 96.2 µM; in assay [2] it was 19 µM; in assay [3], greater than 100 µM; in assay [5], 28.4 µM; in assay [6], 37 µM; in assay [7], 27.7 µM. Also, in assay [8], the TGI worked out at 6.47 µM.

On to `CCC[n+]1cc2cc(OC)c(OC)cc2c2c1-c1cc3c(cc1C2)OCO3`, for which the GI50 in assay [1] is 0.254 µM; in assay [2], 9.45 µM; in assay [3] it was 2.59 µM; in assay [4], 1.03 µM; in assay [5] it was 13.1 µM; in assay [6] it was 0.955 µM. The results for the GI50 in assay [7] and in assay [8] were 0.568 µM and 35.2 µM, respectively. Besides, the TGI in assay [1] was 1.68 µM; in assay [2], 36.7 µM; in assay [3], greater than 33.8 µM; in assay [4], 8.13 µM; in assay [5], 35.1 µM; in assay [6], 5.78 µM. The results for the TGI in assay [7] and in assay [8] were 5.84 µM and greater than 100 µM, respectively.

Consider `OCCNc1ncnc2c1ncn2Cc1cccc(COc2cccc(OCc3cccc(Cn4cnc5c(NCCO)ncnc54)c3)c2)c1`, for which the GI50 in assay [1] is 15.4 µM; in assay [2], 20.7 µM; in assay [3], 12.6 µM; in assay [4] it was 15.5 µM; in assay [5], 23.1 µM; in assay [6] it was 17.6 µM. The GI50 in assay [7] was 16.4 µM; in assay [8], greater than 100 µM. The TGI was determined as 30.4 µM in assay [1]; 43.2 µM in assay [2]; 26.1 µM in assay [3]; 33.3 µM in assay [4]; 56.6 µM in assay [5]; 36.7 µM in assay [6]. The TGI was 32.7 µM in assay [7] and greater than 100 µM in assay [8].

Consider `CCOc1cc(/C=N\Nc2nnc(C)n2N)c(C)cc1N(CCCl)CCCl`, for which the GI50 in assay [1] was 1.28 µM; in assay [2], 0.805 µM; in assay [3], 0.391 µM; in assay [4] it was 1.54 µM; in assay [5] it was 1.3 µM; in assay [6], 0.737 µM. The GI50 is 1.97 µM in assay [7] and 1.37 µM in assay [8]. Besides, the TGI is greater than 45.7 µM in assay [1]; greater than 100 µM in assay [2]; greater than 25.7 µM in assay [3]; 14.7 µM in assay [4]; 11.8 µM in assay [5]; 38.6 µM in assay [6]. The TGI in assay [7] is greater than 92.6 µM; in assay [8] it was 14.3 µM.

On to `COc1cc(/C=C2\C(=O)Nc3ccc(N(C)C)cc32)cc(OC)c1OC`, for which the GI50 in assay [1] was 3.67 µM; in assay [2], 4.72 µM; in assay [3], 1.51 µM; in assay [4], 14.2 µM; in assay [5] it was 3.17 µM; in assay [6], 1.41 µM. The GI50 in assay [7] is 3.92 µM; in assay [8] it was 1.93 µM. The TGI in assay [1] is greater than 100 µM; in assay [2], 98.4 µM; in assay [3], greater than 100 µM; in assay [4] it was greater than 100 µM; in assay [5], greater than 87.4 µM; in assay [6], 4.29 µM. The TGI in assay [7] stood at 33.1 µM; in assay [8] it was 6.27 µM.

In general, GI50 refers to the concentration giving 50% growth inhibition. As usually defined, the TGI is the concentration at which net growth stops. Higher therefore signals less potent growth arrest.
